{"source": "patent US12507703B2", "about": "“Methods, devices and compositions for preserving human milk” (The Trustees of Princeton University, priority 2023, dated 2025)", "note": "Several values for one entry are separate records, joined by “and”; a condition that tells them apart may be missing. Equal values may be shown once."}
{"tested_on": "lipase", "assay": "Lipase/lipolysis assay (EnzChek Lipase Substrate, quenched BODIPY-fatty acid conjugate) on stored human milk; note: test concentration or dose not given here"}
{"smiles": "Cc1c[nH]c2ccccc12", "note": "[Skatole]", "Lipase (RFU)": "735.1893 RFU and 599.6554 RFU"}
{"smiles": "O=c1ccc2ccc(O[C@@H]3O[C@H](CO)[C@@H](O)[C@H](O)[C@H]3O)cc2o1", "note": "[Skimmin]", "Lipase (RFU)": "1029.943 RFU"}
{"smiles": "C[C@@H]1CC[C@@]2(OC1)O[C@H]1C[C@H]3[C@@H]4CC[C@@H]5C[C@@H](O)CC[C@]5(C)[C@H]4CC[C@]3(C)[C@H]1[C@@H]2C", "note": "[Smilagenin]", "Lipase (RFU)": "790.1194 RFU"}
{"smiles": "CC(C)(O[C@@H]1O[C@H](CO)[C@@H](O)[C@H](O)[C@H]1O)[C@H]1Oc2cc3oc(=O)ccc3cc2[C@H]1O", "note": "[Smyrindioloside]", "Lipase (RFU)": "1066.572 RFU"}
{"smiles": "O=C([O-])c1ccccc1O.[Na+]", "note": "[Sodium Salicylate]", "Lipase (RFU)": "847.8959 RFU and 820.8026 RFU"}
{"smiles": "O=C([O-])O.[Na+]", "note": "[Sodium bicarbonate]", "Lipase (RFU)": "751.602 RFU"}
{"smiles": "O=C1O[C@H]([C@H](O)CO)C([O-])=C1O.[Na+]", "note": "[Sodium erythorbate]", "Lipase (RFU)": "904.5416 RFU"}
{"smiles": "CCCCCCCC/C=C\\CCCCCCCC(=O)[O-].[Na+]", "note": "[Sodium oleate]", "Lipase (RFU)": "985.0339 RFU and 925.2134 RFU"}
{"smiles": "C[C@@H]1CC[C@@]2(NC1)O[C@H]1C[C@H]3[C@@H]4CC=C5C[C@@H](O)CC[C@]5(C)[C@H]4CC[C@]3(C)[C@H]1[C@@H]2C", "note": "[Solasodine]", "Lipase (RFU)": "1073.206 RFU"}
{"smiles": "CC1(C)C[C@H]2C3=CC[C@@H]4[C@@]5(C)CC[C@H](O)[C@](C)(CO)[C@@H]5CC[C@@]4(C)[C@]3(C)CC[C@@]2(C)[C@H](O)[C@@H]1O", "note": "[Soyasapogenol A]", "Lipase (RFU)": "1098.785 RFU"}
{"smiles": "CC1(C)C[C@@H](O)[C@]2(C)CC[C@]3(C)C(=CC[C@@H]4[C@@]5(C)CC[C@H](O)[C@](C)(CO)[C@@H]5CC[C@]43C)[C@@H]2C1", "note": "[Soyasapogenol B]", "Lipase (RFU)": "1146.412 RFU"}
{"smiles": "CC(=O)OC[C@H]1O[C@@H](O[C@@H]2[C@@H](O)[C@H](O[C@@H]3[C@H](O)C(C)(C)C[C@H]4C5=CC[C@@H]6[C@@]7(C)CC[C@H](O[C@@H]8O[C@H](C(=O)O)[C@@H](O)[C@H](O)[C@H]8O[C@@H]8O[C@H](CO)[C@H](O)[C@H](O)[C@H]8O[C@@H]8O[C@H](CO)[C@@H](O)[C@H](O)[C@H]8O)[C@](C)(CO)[C@@H]7CC[C@@]6(C)[C@]5(C)CC[C@@]34C)OC[C@@H]2O)[C@H](OC(C)=O)[C@@H](OC(C)=O)[C@@H]1OC(C)=O", "note": "[Soyasaponin Ab]", "Lipase (RFU)": "976.6301 RFU"}
{"smiles": "COc1cc2ccc(=O)oc2c2ccoc12", "note": "[Sphondin]", "Lipase (RFU)": "913.6372 RFU"}
{"smiles": "C[N+]1(C)CCC[C@H]1C(=O)[O-].Cl", "note": "[Stachydrine hydrochloride]", "Lipase (RFU)": "915.6673 RFU"}
{"smiles": "C[N+]1(C)CCC[C@H]1C(=O)[O-]", "note": "[Stachydrine]", "Lipase (RFU)": "1061.585 RFU"}
{"smiles": "O.O.O.O.OC[C@H]1O[C@H](OC[C@H]2O[C@H](OC[C@H]3O[C@H](O[C@]4(CO)O[C@H](CO)[C@@H](O)[C@@H]4O)[C@H](O)[C@@H](O)[C@@H]3O)[C@H](O)[C@@H](O)[C@H]2O)[C@H](O)[C@@H](O)[C@H]1O", "note": "[Stachyose (tetrahydrate)]", "Lipase (RFU)": "648.6527 RFU"}
{"smiles": "OC[C@H]1O[C@H](OC[C@H]2O[C@H](OC[C@H]3O[C@H](O[C@]4(CO)O[C@H](CO)[C@@H](O)[C@@H]4O)[C@H](O)[C@@H](O)[C@@H]3O)[C@H](O)[C@@H](O)[C@H]2O)[C@H](O)[C@@H](O)[C@H]1O", "note": "[Stachyose]", "Lipase (RFU)": "882.4617 RFU"}
{"smiles": "CCCCCCCCCCCCCCCCCC(=O)O[C@H](CC(=O)[O-])C[N+](C)(C)C", "note": "[Stearoylcarnitine]", "Lipase (RFU)": "900.7392 RFU"}
{"smiles": "C=C1C[C@@]23CC[C@H]4[C@@](C)(CCC[C@@]4(C)C(=O)O)[C@@H]2CC[C@]1(O[C@@H]1O[C@H](CO)[C@@H](O)[C@H](O)[C@H]1O[C@@H]1O[C@H](CO)[C@@H](O)[C@H](O)[C@H]1O)C3", "note": "[Steviolbioside]", "Lipase (RFU)": "1061.907 RFU"}
{"smiles": "COc1cc2oc(=O)ccc2cc1CC=C(C)C", "note": "[Suberosin]", "Lipase (RFU)": "1003.25 RFU"}
{"smiles": "CC1(C)[C@H](C(=O)[O-])N2C(=O)C[C@H]2S1(=O)=O.[Na+]", "note": "[Sulbactam (sodium)]", "Lipase (RFU)": "1191.707 RFU"}
{"smiles": "CC1(C)[C@H](C(=O)O)N2C(=O)C[C@H]2S1(=O)=O", "note": "[Sulbactam]", "Lipase (RFU)": "759.2536 RFU"}
{"smiles": "CC(=O)CCC=C(C)C", "note": "[Sulcatone]", "Lipase (RFU)": "1082.02 RFU"}
